Reference: ChEMBL document CHEMBL3991601, “The target landscape of clinical kinase drugs” (Science, 2017)
Active and inactive are the calls of the source. For most assays here, no stated cut-off is given here; in the data, actives have a measured Kd and inactives only a lower limit.

How the values were obtained:
[1] = biological target: Cyclin-dependent kinase 2 (Homo sapiens, UniProt P24941)
[2] = biological target: Serine/threonine-protein kinase/endoribonuclease IRE1 (Homo sapiens, UniProt O75460)
[3] = biological target: T1, Ferrochelatase, mitochondrial (Homo sapiens, UniProt P22830)
T1 sequence (P22830 whole entry): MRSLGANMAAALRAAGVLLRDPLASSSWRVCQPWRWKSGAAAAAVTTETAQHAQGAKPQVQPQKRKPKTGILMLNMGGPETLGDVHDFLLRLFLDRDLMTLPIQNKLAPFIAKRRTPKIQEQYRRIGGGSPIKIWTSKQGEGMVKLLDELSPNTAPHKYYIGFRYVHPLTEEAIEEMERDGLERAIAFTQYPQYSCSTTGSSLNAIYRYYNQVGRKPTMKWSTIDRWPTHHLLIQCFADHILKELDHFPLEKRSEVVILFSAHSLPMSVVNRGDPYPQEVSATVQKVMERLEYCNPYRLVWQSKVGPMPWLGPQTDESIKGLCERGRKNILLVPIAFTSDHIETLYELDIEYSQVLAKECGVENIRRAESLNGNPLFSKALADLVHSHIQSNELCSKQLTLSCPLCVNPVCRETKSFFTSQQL

[4] = biological target: cAMP-dependent protein kinase catalytic subunit beta (Homo sapiens, UniProt P22694)
[5] = biological target: T2, Structural maintenance of chromosomes protein 1A (Homo sapiens, UniProt Q14683)
T2 sequence (Q14683 whole entry): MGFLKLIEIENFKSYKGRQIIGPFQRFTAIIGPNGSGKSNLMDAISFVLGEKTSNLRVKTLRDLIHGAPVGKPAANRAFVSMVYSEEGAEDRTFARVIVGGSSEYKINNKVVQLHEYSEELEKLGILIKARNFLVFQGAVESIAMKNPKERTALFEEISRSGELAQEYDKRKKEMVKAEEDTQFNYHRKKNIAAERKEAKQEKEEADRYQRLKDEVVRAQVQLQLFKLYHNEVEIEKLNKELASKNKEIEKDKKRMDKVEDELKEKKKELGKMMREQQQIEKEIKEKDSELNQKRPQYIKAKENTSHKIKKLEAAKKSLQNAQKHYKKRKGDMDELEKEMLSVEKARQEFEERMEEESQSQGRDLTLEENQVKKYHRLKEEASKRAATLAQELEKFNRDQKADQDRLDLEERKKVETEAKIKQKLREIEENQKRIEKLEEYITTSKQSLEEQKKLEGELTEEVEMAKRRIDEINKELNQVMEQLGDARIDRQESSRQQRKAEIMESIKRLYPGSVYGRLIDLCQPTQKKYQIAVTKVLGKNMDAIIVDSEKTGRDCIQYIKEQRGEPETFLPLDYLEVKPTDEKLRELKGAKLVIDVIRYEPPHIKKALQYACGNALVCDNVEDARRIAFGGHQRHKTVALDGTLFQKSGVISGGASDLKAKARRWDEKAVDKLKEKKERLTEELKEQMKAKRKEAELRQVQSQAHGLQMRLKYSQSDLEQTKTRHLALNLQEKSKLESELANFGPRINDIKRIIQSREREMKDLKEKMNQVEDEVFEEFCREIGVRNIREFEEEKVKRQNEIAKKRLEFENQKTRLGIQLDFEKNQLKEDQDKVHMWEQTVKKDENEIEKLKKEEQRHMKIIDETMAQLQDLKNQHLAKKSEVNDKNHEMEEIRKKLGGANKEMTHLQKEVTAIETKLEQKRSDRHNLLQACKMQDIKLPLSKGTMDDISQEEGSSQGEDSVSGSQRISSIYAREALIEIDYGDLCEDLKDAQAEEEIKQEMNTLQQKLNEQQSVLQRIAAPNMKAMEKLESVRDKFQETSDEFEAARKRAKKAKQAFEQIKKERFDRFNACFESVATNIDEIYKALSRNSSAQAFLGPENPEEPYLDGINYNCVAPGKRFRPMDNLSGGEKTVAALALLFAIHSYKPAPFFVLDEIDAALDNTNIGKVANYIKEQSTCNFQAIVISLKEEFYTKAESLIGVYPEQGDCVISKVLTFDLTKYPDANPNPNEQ

[6] = biological target: T3, Serine/threonine-protein kinase TAO2 (Homo sapiens, UniProt Q9UL54)
T3 sequence (Q9UL54 whole entry): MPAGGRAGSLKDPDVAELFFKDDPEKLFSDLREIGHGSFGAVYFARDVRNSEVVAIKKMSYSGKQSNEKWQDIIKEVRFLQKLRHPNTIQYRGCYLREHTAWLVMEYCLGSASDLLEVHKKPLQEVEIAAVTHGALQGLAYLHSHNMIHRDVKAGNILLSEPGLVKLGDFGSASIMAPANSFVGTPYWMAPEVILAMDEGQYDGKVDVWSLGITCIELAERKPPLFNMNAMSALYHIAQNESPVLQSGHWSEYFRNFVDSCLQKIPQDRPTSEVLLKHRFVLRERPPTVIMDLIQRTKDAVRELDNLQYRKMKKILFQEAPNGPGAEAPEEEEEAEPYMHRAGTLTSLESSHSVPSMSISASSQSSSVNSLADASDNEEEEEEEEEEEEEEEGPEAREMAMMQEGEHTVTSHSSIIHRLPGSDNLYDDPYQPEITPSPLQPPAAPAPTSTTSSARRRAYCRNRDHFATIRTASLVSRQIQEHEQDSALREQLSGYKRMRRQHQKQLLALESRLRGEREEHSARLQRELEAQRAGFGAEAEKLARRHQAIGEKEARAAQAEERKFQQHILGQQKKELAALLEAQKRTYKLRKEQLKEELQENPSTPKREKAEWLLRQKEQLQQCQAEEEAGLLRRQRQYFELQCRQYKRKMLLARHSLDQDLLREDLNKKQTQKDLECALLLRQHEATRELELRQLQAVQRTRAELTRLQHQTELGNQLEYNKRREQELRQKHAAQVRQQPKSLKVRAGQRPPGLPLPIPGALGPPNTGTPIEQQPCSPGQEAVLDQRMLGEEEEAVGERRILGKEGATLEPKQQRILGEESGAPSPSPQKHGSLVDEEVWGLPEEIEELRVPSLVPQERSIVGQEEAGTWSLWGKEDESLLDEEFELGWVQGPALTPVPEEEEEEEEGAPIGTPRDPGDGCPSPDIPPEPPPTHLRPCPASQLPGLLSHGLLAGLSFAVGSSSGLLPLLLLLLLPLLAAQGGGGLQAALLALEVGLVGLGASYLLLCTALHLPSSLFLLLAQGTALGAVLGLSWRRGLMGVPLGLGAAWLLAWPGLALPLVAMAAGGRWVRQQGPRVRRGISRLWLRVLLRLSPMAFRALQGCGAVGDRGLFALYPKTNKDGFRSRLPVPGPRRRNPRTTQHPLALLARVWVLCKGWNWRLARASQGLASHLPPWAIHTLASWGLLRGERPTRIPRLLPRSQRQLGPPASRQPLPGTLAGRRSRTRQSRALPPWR

Sequence of Serine/threonine-protein kinase/endoribonuclease IRE1 (O75460 whole entry): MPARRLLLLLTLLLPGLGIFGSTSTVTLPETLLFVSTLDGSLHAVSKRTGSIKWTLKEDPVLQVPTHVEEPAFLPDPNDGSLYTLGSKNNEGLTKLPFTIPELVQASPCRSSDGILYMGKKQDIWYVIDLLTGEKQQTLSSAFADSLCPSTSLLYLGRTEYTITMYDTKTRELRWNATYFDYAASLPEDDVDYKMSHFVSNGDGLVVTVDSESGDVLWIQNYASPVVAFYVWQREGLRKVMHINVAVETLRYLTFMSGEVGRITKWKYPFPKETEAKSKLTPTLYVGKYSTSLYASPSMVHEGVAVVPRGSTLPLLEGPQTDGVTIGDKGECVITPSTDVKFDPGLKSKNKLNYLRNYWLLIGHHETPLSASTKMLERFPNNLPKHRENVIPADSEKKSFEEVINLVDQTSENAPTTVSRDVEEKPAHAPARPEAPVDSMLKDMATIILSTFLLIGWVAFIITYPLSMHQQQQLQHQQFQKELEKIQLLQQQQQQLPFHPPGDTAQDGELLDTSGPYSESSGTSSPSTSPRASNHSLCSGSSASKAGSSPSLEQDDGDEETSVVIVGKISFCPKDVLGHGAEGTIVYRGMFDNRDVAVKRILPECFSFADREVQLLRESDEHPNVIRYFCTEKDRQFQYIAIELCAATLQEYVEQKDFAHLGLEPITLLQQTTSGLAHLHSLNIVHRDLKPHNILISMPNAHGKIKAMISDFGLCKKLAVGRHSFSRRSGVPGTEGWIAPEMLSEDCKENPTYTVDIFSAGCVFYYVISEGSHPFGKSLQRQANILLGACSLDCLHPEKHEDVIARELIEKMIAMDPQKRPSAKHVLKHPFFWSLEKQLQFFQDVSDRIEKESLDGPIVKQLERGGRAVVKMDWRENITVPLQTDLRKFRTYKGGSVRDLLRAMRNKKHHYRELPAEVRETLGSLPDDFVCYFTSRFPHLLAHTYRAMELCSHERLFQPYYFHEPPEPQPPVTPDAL

Kd [1]	Kd [2]	Kd [3]	Kd [4]	Kd [5]	Kd [6]	SMILES
> 30 µM (inactive)	> 30 µM (inactive)	> 30 µM (inactive)	> 30 µM (inactive)	> 30 µM (inactive)	> 30 µM (inactive)	NC(=O)c1ccc(N(C(N)=O)c2c(F)cccc2F)nc1-c1ccc(F)cc1F [VX-702]
> 30 µM (inactive)	> 30 µM (inactive)	> 30 µM (inactive)	> 30 µM (inactive)	> 30 µM (inactive)	> 30 µM (inactive)	Cc1cc(Nc2nc(N[C@@H](C)c3ncc(F)cn3)ncc2Cl)n[nH]1 [AZD-1480]
> 30 µM (inactive)	> 30 µM (inactive)	> 30 µM (inactive)	> 30 µM (inactive)	> 30 µM (inactive)	> 30 µM (inactive)	CNC(=O)c1cc(COc2nnc(Nc3ccc(Cl)cc3)c3ccoc23)ccn1 [TELATINIB]
> 30 µM (inactive)	> 30 µM (inactive)	> 30 µM (inactive)	> 30 µM (inactive)	> 30 µM (inactive)	> 30 µM (inactive)	Cn1c(=O)n(-c2ccc(C(C)(C)C#N)cc2)c2c3cc(-c4cnc5ccccc5c4)ccc3ncc21 [DACTOLISIB]
> 30 µM (inactive)	> 30 µM (inactive)	> 30 µM (inactive)	1.21 µM (active)	> 30 µM (inactive)	> 30 µM (inactive)	COc1cccc(Nc2ncnn3ccc(CN4CC[C@@H](N)[C@H](O)C4)c23)c1 [BMS-690514]
> 30 µM (inactive)	1.36 µM (active)	> 30 µM (inactive)	> 30 µM (inactive)	> 30 µM (inactive)	> 30 µM (inactive)	O[C@H]1CC[C@H](Nc2ncc3nc(Nc4c(F)cc(F)cc4F)n([C@H]4CCOC4)c3n2)CC1 [TANZISERTIB]
> 30 µM (inactive)	> 30 µM (inactive)	> 30 µM (inactive)	> 30 µM (inactive)	> 30 µM (inactive)	> 30 µM (inactive)	Cc1cc(-c2cc(OC(=O)c3ccccc3)ccc2Cl)cc2nnc(Nc3ccc(OCCN4CCCC4)cc3)nc12 [TG100-801]
> 30 µM (inactive)	> 30 µM (inactive)	> 30 µM (inactive)	> 30 µM (inactive)	> 30 µM (inactive)	> 30 µM (inactive)	FC(F)(F)c1ccc(CNc2ccc(Cc3c[nH]c4ncc(Cl)cc34)cn2)cn1 [PEXIDARTINIB]
> 30 µM (inactive)	> 30 µM (inactive)	> 30 µM (inactive)	> 30 µM (inactive)	> 30 µM (inactive)	> 30 µM (inactive)	Cc1cc(C(=O)Nc2cc(Oc3ccc4nc(NC(=O)C5CC5)cn4n3)ccc2C)n(C)n1 [TAK-593]
> 30 µM (inactive)	> 30 µM (inactive)	> 30 µM (inactive)	> 30 µM (inactive)	> 30 µM (inactive)	> 30 µM (inactive)	Cn1c(=O)c(F)c(Nc2ccc(I)cc2F)c2c(=O)n(C[C@@H](O)CO)cnc21 [TAK-733]
> 30 µM (inactive)	> 30 µM (inactive)	12.6 µM (active)	> 30 µM (inactive)	> 30 µM (inactive)	> 30 µM (inactive)	COc1cccc2cc(-c3nc([C@H]4CC[C@H](C(=O)O)CC4)n4ncnc(N)c34)[nH]c12 [OSI-027]

SMILES	Kd [1]	Kd [2]	Kd [3]	Kd [4]	Kd [5]	Kd [6]
Cn1cc(-c2[nH]c3cc(NC(=O)[C@H](N)C4CCCCC4)cc4c3c2C=NNC4=O)cn1	> 30 µM (inactive)	> 30 µM (inactive)	> 30 µM (inactive)	> 30 µM (inactive)	> 30 µM (inactive)	> 30 µM (inactive)
CN(c1ncccc1CNc1nc(Nc2ccc3c(c2)CC(=O)N3)ncc1C(F)(F)F)S(C)(=O)=O [PF-00562271]	1.07 µM (active)	> 30 µM (inactive)	> 30 µM (inactive)	> 30 µM (inactive)	> 30 µM (inactive)	> 30 µM (inactive)
NC[C@@](O)(c1ccc(Cl)cc1)c1ccc(-c2cn[nH]c2)cc1 [AT-13148]	> 30 µM (inactive)	> 30 µM (inactive)	> 30 µM (inactive)	0.014 µM (active)	> 30 µM (inactive)	> 30 µM (inactive)
CN1CCN(c2nc(C3=C(c4c[nH]c5ccccc45)C(=O)NC3=O)c3ccccc3n2)CC1 [SOTRASTAURIN]	> 30 µM (inactive)	> 30 µM (inactive)	> 30 µM (inactive)	> 30 µM (inactive)	> 30 µM (inactive)	> 30 µM (inactive)
CC1(COc2ccc3c(c2)ncn3-c2ccc3cccc(N4CCC(N)CC4)c3n2)COC1 [CRENOLANIB]	0.128 µM (active)	> 30 µM (inactive)	7.35 µM (active)	> 30 µM (inactive)	> 30 µM (inactive)	> 30 µM (inactive)
C=CCn1c(=O)c2cnc(Nc3ccc(N4CCN(C)CC4)cc3)nc2n1-c1cccc(C(C)(C)O)n1 [ADAVOSERTIB]	> 30 µM (inactive)	> 30 µM (inactive)	> 30 µM (inactive)	> 30 µM (inactive)	> 30 µM (inactive)	> 30 µM (inactive)
CNC(=O)c1ccc(Nc2ncc(C(F)(F)F)c(NCc3nccnc3N(C)S(C)(=O)=O)n2)cc1 [DEFACTINIB]	1.66 µM	> 30 µM (inactive)	> 30 µM (inactive)	> 30 µM (inactive)	> 30 µM (inactive)	> 30 µM (inactive)
CCc1nc(C(N)=O)c(Nc2ccc(N3CCC(N4CCN(C)CC4)CC3)c(OC)c2)nc1NC1CCOCC1 [GILTERITINIB]	> 30 µM (inactive)	> 30 µM (inactive)	> 30 µM (inactive)	> 30 µM (inactive)	> 30 µM (inactive)	2.09 µM (active)
